# What was measured:
# Assay type in all cases: functional, cell-based
# PC-3 = assay: Antiproliferative activity against human prostate cancer PC-3 cell line by sulforhodamine B assay
# [1] = Antiproliferative activity against human prostate cancer TSU-Pr1 cell line by sulforhodamine B assay
# [2] = Antiproliferative activity against human prostate cancer PPC-1 cell line by sulforhodamine B assay
# DU-145 = assay: Antiproliferative activity against human prostate cancer DU-145 cell line by sulforhodamine B assay
# LNCaP = assay: Antiproliferative activity against human prostate cancer LNCaP cell line by sulforhodamine B assay
IC50 (PC-3) [µM],IC50 (DU-145) [µM],IC50 (LNCaP) [µM],SMILES,IC50 [1] [µM],IC50 [2] [µM]
> 20,> 20,6.1,CCCCCCCCCCCCCCCCCCNC(=O)[C@@H]1CSC(c2ccc(OCC)cc2)N1 (stereo not given in full),> 20,4.4
> 20,> 20,> 20,CCCCCCCCCCCCCCCCCCNC(=O)[C@H]1NC(c2ccc(N(C)C)cc2)SC1(C)C (stereo not given in full),> 20,> 20
6.7,5.7,1.7,CCCCCCCCCCCCCCCCCCNC(=O)[C@@H]1CSC(c2cccc(O)c2)N1 (stereo not given in full),4,1.2
10.6,7.3,2.4,CCCCCCCCCCCCCCCCCCNC(=O)[C@@H]1CSC(c2c(OC)cc(OC)cc2OC)N1 (stereo not given in full),6.1,0.83
4,3.9,0.82,CCCCCCCCCCCCCCCCCCNC(=O)[C@@H]1CSC(c2cc(OC)c(OC)c(OC)c2)N1 (stereo not given in full),2.4,0.48
> 20,> 20,> 20,CCCCCCCCCCCCCCCCCCNC(=O)[C@H]1NC(c2cc(OC)c(OC)c(OC)c2)SC1(C)C (stereo not given in full),> 20,18.8
> 20,> 20,8.7,CCCCCCCCN(CCCCCCCC)C(=O)[C@@H]1CSC(c2cc(OC)c(OC)c(OC)c2)N1 (stereo not given in full),> 20,14.1
6,5.3,1.6,CCCCCCCCCCCCCCCCCCNC(=O)[C@@H]1CSC(c2ccc(N(C)C)cc2)N1 (stereo not given in full),3,1.1
5.3,3.1,1.6,CCCCCCCCCCCCCCCCCCNC(=O)[C@@H]1CSC(c2ccc(O)cc2)N1 (stereo not given in full),3,0.82
19,8.7,2.1,CCCCCCCCCCCCCCCCCCNC(=O)[C@@H]1CSC(c2ccc(OC)cc2)N1 (stereo not given in full),19.6,1.5
